# Laboratory results published in patent US5639873A, “Oligothionucleotides” (Centre National de la Recherche Scientifique (CNRS), priority 1992, dated 1997).
# Entries after “also recorded” stand apart in the source; their conditions may differ.
# Key:
# [1] = tested on: 3'-exonuclease snake venom phosphodiesterase; format: in vitro ADME
# Source text: (§1) Study of the substrate-type activities of hexamers 4'-SrU6, 4'-SrU6 -3'n-prOH compared with the substrate characteristics of the hexamers βrU6 and αrU6 in relation to various purified nucleases.
# Snake venom phosphodiesterase (VSP) is a 3'-exonuclease-3' which liberates nucleotides 5'-phosphate after degrading the oligomer by its 3' end.
# (§2) These four enzymes were obtained from Boehringer Mannheim.
# (§3) Generally, one optical density unit at 260 nm of each hexamer is brought into contact with a certain concentration of the enzyme considered and is then diluted in a sufficient quantity for 1000 μl of enzymatic digestion buffer.
# (§4) Various digestion buffers were used depending on the nature of the enzyme (Table 9).
# (§5) The stock sample is divided into 10 fractions of 100 μl before being frozen at -18° C.
# (§6) One aliquot fraction of 100 μl is collected and incubated in a dry oven thermostated at 37° C. for a time t and is then analyzed by analytical HPLC.
# (§7) The study of the surface area of the signal corresponding to the hexamer makes it possible to measure a kinetics of degradation whose half-life period is calculated (Table 10).
# Ribonuclease A = experiment: Enzymatic degradation of hexamers by ribonuclease A; format: in vitro ADME
# Procedure: as §1
# Ribobuclease A degrades an oligoribonucleotide after the pyrimidine residues.
# as §2, §3, §4, §5, §6, §7
# Endonuclease S1 = experiment: Enzymatic degradation of hexamers by endonuclease S1; format: in vitro ADME
# Source text: as §1
# Endonuclease S1, specific for the single DNA strand hydrolyzes the phosphodiester bonds in a random manner.
# as §2, §3, §4, §5, §6, §7
# [2] = tested on: 5'-exonuclease calf spleen phosphodiesterase; experiment: Enzymatic degradation of hexamers by 5'-exonuclease calf spleen phosphodiesterase; format: in vitro ADME
# Source text: as §1
# Calf spleen phosphodiesterase (CSP) is a 5'-exonuclease which degrades the oligonucleotides from their 5' end and liberates nucleotides 3'-phosphates.
# as §2, §3, §4, §5, §6, §7
# [3] = tested on: βdC2 A12 C2 (SEQ ID NO: 4); experiment: Melting of duplexes with βdC2 A12 C2 (UV spectrophotometry, melting temperature); format: binding; conditions: for Tm: Table 7, duplex with d(C2 A12 C2), 3 μM; for Melting temperature (Tm): 10 mM sodium cacodylate, pH 7
# Source text: (§8) UV spectrophotometry makes it possible to study the nucleic acids and to detect the formation of duplex, the melting temperature being one of the characteristics of a duplex. The stacking and pairing of the bases of the nucleic acids are accompanied by a decrease in the UV absorbtion (hypochromicity). […] The point of inflection of the curve, of sygmoidal shape, of the variation of the absorbance as as function of temperature is called melting temperature or Tm and corresponds to the co-existence of separate strands and paired strands in a 50/50 ratio.
# (§9) Analysis of the melting curves for the β-4'-thiooligoribonucleotide/β-oligodeoxyribonucleotide and β-4'-thiooligoribonucleotide/β-oligoribonucleotide duplexes will make it possible to define the thermal stability of such duplexes by the measurement of the melting temperature. These hybridization experiments are carried out preserving a 1/1 stoichiometry between the two complementary strands, in the presence of a 1M NaCl, 10 mM sodium cacodylate buffer. A high NaCl concentration indeed favors the pairings by solvating the negative charges around the phosphorus atoms of the two oligonucleotides. We therefore carried out these hybridization experiments in a 0.1M NaCl, 10 mM sodium cacodylate buffer.
# (§10) In order to carry out the hybridization experiment, it is necessary to know the concentration of each oligomer in order to preserve the 1:1 stoichiometry between the two complementary strands. According to the BEER-LAMBERT law A=ε1c, the absorbances of the oligomers were measured at 80° C. in order to remove the phenomenon of stacking of the bases creating a disturbance in the hyperchromicity due to the existence of tertiary structures.
# (§11) The hybridization experiments were carried out with a UVIKON 810 spectrophotometer (KONTRON), coupled to an IBM-compatible microcomputer. […] The UV cuvettes are made from quartz of 1 cm in length and a continous circulation of nitrogen is used for temperatures of less than 20° C. […] This mixture is heated at 80° C. for 1 hour, and then cooled to -20° C. according to a temperature gradient of 0.5° C. per minute. The absorbance and temperature values are collected every 30 seconds.
# (§12) The same experiment is carried out using a sufficient quantity for 1000 μl of 0.1M NaCl, 10 mM sodium cacodylate hybridization buffer adjusted to pH 7 in order to evaluate the thermal stability of the duplex in this buffer which favors the pairings less.
# (§13) The hybridization experiments were carried out preserving the 1/1 stoichiometry between the two complementary strands in the presence of a 1M NaCl, 10 mM sodium cacodylate buffer. A high NaCl concentration indeed favors the pairings by solvating the negative charges around the phosphorus atoms of the two oligonucleotides. We carried out these hybridization experiments in another buffer 0.1M NaCl, 10 mM sodium cacodylate.
# as §10, with “experiments,” for “experiment,”
# as §11
# polyrA = experiment: Melting of duplexes with polyrA (UV spectrophotometry, melting temperature); format: binding; conditions: for Tm: Table 7, duplex with poly rA, 3 μM; for thermal stability with complementary RNA (in words): complementary RNA sequences; for Melting temperature (Tm) / hypochromicity: Table 4, 3 μM of each oligomer; for Melting temperature (Tm): 10 mM sodium cacodylate, pH 7
# Source text: as §8, §9, §10, §11, §12, §13
# as §10, with “experiments,” for “experiment,”
# as §11
# [4] = tested on: calf spleen phosphodiesterase; experiment: Enzymatic degradation of the dodecamers by calf spleen phosphodiesterase; format: in vitro ADME; conditions: for Degradation in 0 min / Degradation in 25 min: Table 8
# Source text: Study of the enzymatic degradation of the dodecamer β(SrT)dT11 (SEQ ID NO: 3) by calf spleen phosphodiesterase. Calf spleen phosphodiesterase is an exonuclease which degrades the oligomers from their free 5' ends, thus liberating nucleotides 3' phosphate.
# This study will allow us to evaluate the resistance to enzymatic degradation induced by the presence in the 5' position of a 4'-thionucleotide unit in the oligomer β(SrT)dT11 (SEQ ID NO: 3) compared to the enzymatic degradation of the oxygenated natural homolog βdT12 (SEQ ID NO: 3). The comparative stability of the two dodecamers βdT12 (SEQ ID NO: 3) and β(SrT)dT11 (SEQ ID NO: 3) towards hydrolysis by calf spleen phosphodiesterase is presented in Table 8.
# The variation over time of the enzymatic degradation of the two dodecamers was monitored by HPLC. We were able to plot the curve for enzymatic digestion of β(SrT)dT11 (SEQ ID NO: 3) as a function of time: A=A0 e^-kt (FIG. 2, A) where:
# A0 is the initial surface area of the 12-mer
# A is the surface area of the 12-met at the instant t
# k is the first order rate constant for the degradation
# An oligonucleotide solution (20 μl, 3 absorbance units at 260 nm) is diluted in 0.125M ammmonium acetate buffer (pH 7.0), 2.5 mM EDTA and 0.065% Tween 80 (80 μL). A commercial solution of calf spleen phosphodisesterase (2 μl, final concentration 0.008 unit/ml) is added and the mixture is incubated at 37° C. At determined times, aliquot fractions are collected (5 μl), heated at 100° C. for one minute and analyzed by HPLC.
# The analyses were carried out on an PVDI (Polyvinylimidazole SFCC-Shandon) column protected by a precolumn and a prefilter. The elution is carried out based on a linear gradient over 20 minutes from 0.1M to 0.4M KCl in 20 mM KH2 PO4 at pH 6 containing 20% acetonitrile. The flow rate was fixed at 1 ml/min and the UV detection at 260 nm.
# βSrU12 (SEQ ID NO: 5) = experiment: Self-hybridization of the oligomer βSrU12; format: binding; conditions: 1M and 0.1M NaCl
# Procedure: For that, an experiment for self-hybridization of the dodecamer βSrU12 (SEQ ID NO: 5) was carried out at two NaCl concentrations (1M and 0.1M). […] No point of inflection can be visualized on such a straight line.
# The hybridization experiments were carried out with a UVIKON 810 spectrophotometer (KONTRON), coupled to an IBM-compatible microcomputer. The temperature is controlled by a HUBER PD 415 temperature programmer connected to a thermostated bath (HUMER […]). The UV cuvettes are made from quartz of 1 cm in length and a continous circulation of nitrogen is used for temperatures of less than 20° C. Before the experiment, 3 μM (Examples 1 to V) or 10 μM (Examples VI and VII) of complementary oligomers are brought into contact in a sufficient quantity for 1000 μl of 1M NaCl and 10 mM sodium cacodylate buffer, adjusted to pH 7 (Examples I to VII). This mixture is heated at 80° C. for 1 hour, and then cooled to -20° C. according to a temperature gradient of 0.5° C. per minute. The absorbance and temperature values are collected every 30 seconds.
# as §12
# Concentration of βrU12 (SEQ ID NO: 5)=0.351 mM […]
# [5] = Table 5, 0.1M NaCl, 3 μM of each oligomer
# [6] = Table 5, 1M NaCl, 3 μM of each oligomer
# [7] = Table 6, 1M NaCl, 10 μM of each oligomer
substance,measurement,setting,value
4'-Sr-(U-U-U-U-U-U) [βSrU6],Half-life period,"[1]; Table 10, VSP 6 × 10^-4 units/ml, pH 9.4, 37° C.",1.27 h
same,enzymatic resistance compared with βrU6 (in words),[1]; VSP,high enzymatic resistance
same,enzymatic resistance compared with βrU6 (in words),Ribonuclease A; RNase-A,high enzymatic resistance
same,Half-life period,"Ribonuclease A; Table 10, RNAse A 2 × 10^-2 units/ml, pH 7.4, 37° C.",11.2 h
same,enzymatic resistance compared with βrU6 (in words),Endonuclease S1; S1,high enzymatic resistance
same,Half-life period,"Endonuclease S1; Table 10, S1 20 units/ml, pH 4.7, 37° C.",15.5 h
same,enzymatic resistance compared with βrU6 (in words),[2]; CSP,high enzymatic resistance
same,Half-life period,"[2]; Table 10, CSP 13 × 10^-3 units/ml, pH 7, 37° C.",65 h
"4'-SrU3 -dT6 -4'-SrU3 /P3 PS5 P3 (UUUTTTTTTUUU; 4'-thioribouridine units; phosphorothioate bonds) [compound 5, mixed dodecamer containing both phosphodiester and phosphorothioate bonds]",Tm,[3]; 0.1 M NaCl,3 °C
same,Tm,[3]; 1 M NaCl,19 °C
same,Tm,polyrA; 0.1 M NaCl,24 °C
same,Tm,polyrA; 1 M NaCl,36 °C
same,thermal stability with complementary RNA (in words),polyrA,good thermal stability
same,decrease in the Tm value per phosphorothioate linkage,"polyrA; with poly rA and d(C2 A12 C2), versus phosphodiester oligomer 4",about 2 °C
"4'-SrU3 -dT6 -4'-SrU3 /P11 (UUUTTTTTTUUU; 4'-thioribouridine units) [compound 4, mixed dodecamer with phosphodiester bonds]",Tm,[3]; 0.1 M NaCl,10 °C
same,Tm,[3]; 1 M NaCl,31 °C
same,Tm values compared with those of βrSU12 (in words),[3]; with d(C2 A12 C2),equivalent
same,Tm,polyrA; 0.1 M NaCl,32 °C
same,Tm,polyrA; 1 M NaCl,45 °C
same,thermal stability with complementary RNA (in words),polyrA,good thermal stability
same,Tm values compared with those of βrSU12 (in words),polyrA; with poly rA,equivalent
β(SrT)dT11: dodecamer with a 4'-thionucleotide unit in the 5' position (TTTTTTTTTTTT; 5' 4'-thionucleotide unit),first order rate constant for the degradation (k),"[4]; FIG. 2, 37° C., 0.008 unit/ml",0.016 min⁻¹
same,half-life period (t1/2),"[4]; FIG. 2, 37° C., 0.008 unit/ml",0.717 h
same,Degradation in 0 min,"[4]; 37° C., 0.008 unit/ml",0%
same,Degradation in 25 min,"[4]; 37° C., 0.008 unit/ml",23%
same,half-life period compared with that of βSrU12 (in words),[4]; degradation by the 5' end,substantially greater
βSrU12: homododecamer 4'-thio-β-D-ribonucleotide (βrSU12),Melting temperature (Tm),[3]; [5],5 °C
same,hypochromicity,[3]; [5],5.6%
same,Melting temperature (Tm),[3]; [6],27 °C
same,hypochromicity,[3]; [6],9.3%
same,self-hybridization (in words),βSrU12 (SEQ ID NO: 5),does not self-pair; also recorded: no self-hybridization
same,Melting temperature (Tm),polyrA; 0.1M NaCl,33 °C
same,hypochromicity,polyrA; 0.1M NaCl,25%
same,Melting temperature (Tm),polyrA; 1M NaCl,46 °C
same,hypochromicity,polyrA; 1M NaCl,25%
same,thermal stability with complementary RNA (in words),polyrA,good thermal stability
βdT5 (SrT)dT6: dodecamer βdT5 (SrT) dT6,difference in Tm (modified duplex lower than natural duplex),"[3]; 1M NaCl, 10 μM, versus βdT12/βdC2 A12 C2",5 °C
same,Melting temperature (Tm),[3]; [7],40 °C
same,hypochromicity,[3]; [7],18%
βdT12: oxygenated natural homolog βdT12 [reference compound],half-life period (t1/2),"[4]; FIG. 2, 37° C., 0.008 unit/ml",0.017 h
same,Degradation in 0 min,"[4]; 37° C., 0.008 unit/ml",0%
same,Degradation in 25 min,"[4]; 37° C., 0.008 unit/ml",93%
same,Melting temperature (Tm),[3]; [7],45 °C
same,hypochromicity,[3]; [7],20.5%
